53 molecules from patent US8211935B2, “Heterocyclic derivatives for modulation of calcium channels” (Vertex Pharmaceuticals Incorporated, priority 2004, dated 2012) can be followed below.

This experiment addresses T1, CaV2.2 (Homo sapiens, UniProt Q00975).
T1 construct: expressed in transfected cells; host or cells: HEK293
The experiment in a line: VIPR optical membrane potential assay with electrical stimulation. In kind it is cell-based. A digest of the protocol:
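HEK293 cells stably expressing CaV2.2, stained with CC2-DMPE (10 μM final) and oxonol voltage-sensitive dyes, compound added with BaCl2. Membrane potential response evoked by 3-5 s electrical stimulation. Read as background-subtracted 460/580 nm emission ratio, response R=Rf/Ri, normalized to mibefradil positive and no-drug negative controls.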

Where [1] appears, read: Table 3, biological assay data, read-out: IC50.

Where two headings read alike, the source gives them in different places. Bounds are passed on as bounds.

T1 sequence (Q00975 whole entry): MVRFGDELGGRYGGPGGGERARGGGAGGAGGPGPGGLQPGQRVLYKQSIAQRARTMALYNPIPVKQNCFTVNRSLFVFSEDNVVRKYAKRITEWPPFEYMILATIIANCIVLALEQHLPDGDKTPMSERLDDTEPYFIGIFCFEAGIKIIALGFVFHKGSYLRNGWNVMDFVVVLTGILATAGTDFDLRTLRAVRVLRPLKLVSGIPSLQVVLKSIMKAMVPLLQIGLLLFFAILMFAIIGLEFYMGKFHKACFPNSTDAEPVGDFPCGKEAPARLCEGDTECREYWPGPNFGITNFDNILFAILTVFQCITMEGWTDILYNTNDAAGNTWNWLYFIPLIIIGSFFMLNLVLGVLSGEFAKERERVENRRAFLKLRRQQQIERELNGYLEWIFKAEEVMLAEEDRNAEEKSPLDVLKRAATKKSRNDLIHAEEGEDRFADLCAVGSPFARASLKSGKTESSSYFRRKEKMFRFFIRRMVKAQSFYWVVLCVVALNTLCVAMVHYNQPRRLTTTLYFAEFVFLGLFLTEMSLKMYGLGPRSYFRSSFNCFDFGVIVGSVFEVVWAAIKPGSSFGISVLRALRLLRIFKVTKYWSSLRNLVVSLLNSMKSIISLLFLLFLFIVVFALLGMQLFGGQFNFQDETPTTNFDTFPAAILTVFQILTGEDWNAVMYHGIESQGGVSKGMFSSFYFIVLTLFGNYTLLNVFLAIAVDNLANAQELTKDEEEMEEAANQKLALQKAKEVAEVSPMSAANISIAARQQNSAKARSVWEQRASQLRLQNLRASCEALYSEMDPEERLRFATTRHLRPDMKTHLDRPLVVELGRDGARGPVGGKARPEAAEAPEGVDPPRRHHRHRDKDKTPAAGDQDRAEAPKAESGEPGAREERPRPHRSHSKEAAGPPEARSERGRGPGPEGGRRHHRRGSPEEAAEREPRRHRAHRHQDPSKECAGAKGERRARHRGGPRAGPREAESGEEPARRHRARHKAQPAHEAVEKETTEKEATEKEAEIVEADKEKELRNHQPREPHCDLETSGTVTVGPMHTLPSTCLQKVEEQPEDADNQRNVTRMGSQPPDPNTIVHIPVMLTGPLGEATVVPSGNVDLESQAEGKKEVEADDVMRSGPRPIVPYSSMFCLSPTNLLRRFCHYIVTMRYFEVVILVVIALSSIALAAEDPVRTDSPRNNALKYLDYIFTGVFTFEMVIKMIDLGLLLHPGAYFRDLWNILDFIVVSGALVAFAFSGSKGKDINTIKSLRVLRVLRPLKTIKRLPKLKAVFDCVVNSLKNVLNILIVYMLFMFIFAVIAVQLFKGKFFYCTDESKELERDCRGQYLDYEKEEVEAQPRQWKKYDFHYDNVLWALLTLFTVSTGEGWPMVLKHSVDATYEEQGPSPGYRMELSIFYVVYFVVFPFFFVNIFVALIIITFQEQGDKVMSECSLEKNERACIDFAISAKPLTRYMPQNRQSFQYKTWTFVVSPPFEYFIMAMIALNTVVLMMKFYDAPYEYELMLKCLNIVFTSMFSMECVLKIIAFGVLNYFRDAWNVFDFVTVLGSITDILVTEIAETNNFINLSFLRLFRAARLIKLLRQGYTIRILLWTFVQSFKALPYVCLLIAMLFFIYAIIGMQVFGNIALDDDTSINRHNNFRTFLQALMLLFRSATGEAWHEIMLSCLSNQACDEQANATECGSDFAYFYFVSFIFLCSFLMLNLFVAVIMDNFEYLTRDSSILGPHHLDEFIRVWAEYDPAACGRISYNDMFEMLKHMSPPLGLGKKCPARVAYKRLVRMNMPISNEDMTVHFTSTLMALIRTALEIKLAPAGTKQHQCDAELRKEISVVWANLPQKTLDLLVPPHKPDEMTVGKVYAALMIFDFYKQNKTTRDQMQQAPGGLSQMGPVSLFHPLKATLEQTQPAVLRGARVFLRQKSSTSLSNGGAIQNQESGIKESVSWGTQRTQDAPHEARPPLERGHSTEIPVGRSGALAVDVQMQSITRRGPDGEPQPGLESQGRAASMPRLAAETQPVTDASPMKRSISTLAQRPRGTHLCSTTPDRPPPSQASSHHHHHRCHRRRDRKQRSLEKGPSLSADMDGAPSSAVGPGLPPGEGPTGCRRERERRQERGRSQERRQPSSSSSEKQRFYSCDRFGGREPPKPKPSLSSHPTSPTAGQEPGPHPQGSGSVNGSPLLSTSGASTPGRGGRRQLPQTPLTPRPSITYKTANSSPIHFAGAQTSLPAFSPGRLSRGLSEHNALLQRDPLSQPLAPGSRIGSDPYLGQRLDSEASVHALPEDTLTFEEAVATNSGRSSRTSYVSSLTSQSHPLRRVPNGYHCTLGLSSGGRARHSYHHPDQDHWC
T1 sequence (P54284 whole entry partner): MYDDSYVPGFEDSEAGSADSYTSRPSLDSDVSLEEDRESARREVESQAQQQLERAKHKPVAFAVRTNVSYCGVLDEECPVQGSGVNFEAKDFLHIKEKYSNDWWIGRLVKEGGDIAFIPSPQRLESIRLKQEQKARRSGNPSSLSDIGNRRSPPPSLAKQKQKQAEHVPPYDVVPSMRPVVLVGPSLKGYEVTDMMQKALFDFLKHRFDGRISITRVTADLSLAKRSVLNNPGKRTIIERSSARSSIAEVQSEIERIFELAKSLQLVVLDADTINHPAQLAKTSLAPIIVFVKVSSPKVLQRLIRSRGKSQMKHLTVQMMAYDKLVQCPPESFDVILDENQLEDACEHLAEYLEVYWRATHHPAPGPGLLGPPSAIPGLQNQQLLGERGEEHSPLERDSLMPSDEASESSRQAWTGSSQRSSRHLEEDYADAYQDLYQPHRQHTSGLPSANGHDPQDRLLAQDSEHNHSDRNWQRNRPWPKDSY
T1 sequence (P54289 25-946 partner limits assumed): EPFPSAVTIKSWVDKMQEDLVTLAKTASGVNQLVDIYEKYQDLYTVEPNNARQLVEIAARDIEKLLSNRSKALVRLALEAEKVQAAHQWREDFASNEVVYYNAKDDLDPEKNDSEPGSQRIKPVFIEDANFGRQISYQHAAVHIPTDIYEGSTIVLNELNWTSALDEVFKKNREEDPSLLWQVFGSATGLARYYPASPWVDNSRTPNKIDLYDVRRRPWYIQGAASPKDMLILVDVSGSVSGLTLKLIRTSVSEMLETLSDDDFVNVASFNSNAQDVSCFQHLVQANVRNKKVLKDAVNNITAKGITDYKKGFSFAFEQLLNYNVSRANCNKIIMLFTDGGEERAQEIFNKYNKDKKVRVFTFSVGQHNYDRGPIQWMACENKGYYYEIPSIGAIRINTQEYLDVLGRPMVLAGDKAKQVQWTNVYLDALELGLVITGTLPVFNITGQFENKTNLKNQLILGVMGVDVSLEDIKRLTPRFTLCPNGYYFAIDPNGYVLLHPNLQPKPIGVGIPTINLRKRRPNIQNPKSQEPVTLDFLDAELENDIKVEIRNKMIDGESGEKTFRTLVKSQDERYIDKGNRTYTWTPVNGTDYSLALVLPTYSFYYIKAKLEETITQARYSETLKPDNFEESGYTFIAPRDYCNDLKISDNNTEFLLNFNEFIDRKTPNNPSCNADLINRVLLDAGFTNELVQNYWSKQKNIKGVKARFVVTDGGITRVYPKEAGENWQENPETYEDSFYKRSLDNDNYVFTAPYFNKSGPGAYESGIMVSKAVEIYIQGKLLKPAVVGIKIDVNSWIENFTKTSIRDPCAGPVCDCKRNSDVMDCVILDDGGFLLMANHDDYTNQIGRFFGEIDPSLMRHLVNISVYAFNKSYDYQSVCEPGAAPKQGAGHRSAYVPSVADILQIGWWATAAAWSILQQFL
T1 sequence (P54289 947-1103 partner limits assumed): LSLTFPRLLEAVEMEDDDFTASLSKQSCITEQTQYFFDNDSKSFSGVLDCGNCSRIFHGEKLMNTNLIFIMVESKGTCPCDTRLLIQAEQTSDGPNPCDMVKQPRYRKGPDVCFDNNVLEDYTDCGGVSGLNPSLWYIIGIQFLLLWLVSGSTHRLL

For `COc1ccccc1CNC(=O)c1oc2ccc(S(=O)(=O)N3CCCCCC3)cc2c1C` [compound 245], the IC50 under setting [1] is 5 to 20 µM.
Same read-out and setting: the result for `CC1CCN(S(=O)(=O)c2ccc3oc(C(=O)N4CCCCCC4)cc3c2)CC1` [compound 246] reads less than 5 µM; that for `Cc1c(C(=O)NC2CCCC2)oc2ccc(S(=O)(=O)N3CC(C)CC(C)C3)cc12` (centres unmarked) [compound 247], less than 5 µM; that for `O=C(NCCc1ccccc1)c1cc2cc(S(=O)(=O)N3CCCCCC3)ccc2[nH]1` [compound 248], less than 5 µM.
The same measure, in the same setting: with `Cc1c(C(=O)NCC2CCCO2)oc2ccc(S(=O)(=O)N3CCCCCC3)cc12` (centres unmarked) [compound 249] the figure was 5 to 20 µM.
Still for that read-out and setting: with `CCN(CC)S(=O)(=O)c1ccc2oc(C(=O)NCc3ccccc3)c(C)c2c1` [compound 250] the figure was 5 to 20 µM; with `CC1CC(C)CN(S(=O)(=O)c2ccc3[nH]c(C(N)=O)cc3c2)C1` (centres unmarked) [compound 251], 5 to 20 µM.
Molecule `O=C(c1cc2cc(S(=O)(=O)N3CCCCCC3)ccc2[nH]1)N1CCC2(CC1)OCCO2` [compound 252] registered an IC50 of 5 to 20 µM.
Same read-out and setting: the result for `Cc1c(C(=O)N2CCC3(CC2)OCCO3)[nH]c2ccc(S(=O)(=O)N3CC(C)CC(C)C3)cc12` (centres unmarked) [compound 253] reads less than 5 µM.
Turning to `CCCN(CC1CC1)C(=O)c1cc2cc(S(=O)(=O)N3CC(C)CC(C)C3)ccc2[nH]1` (centres unmarked) [compound 254], under setting [1], the IC50 was less than 5 µM.
Still for that read-out and setting: with `COc1ccc(CNS(=O)(=O)c2ccc3oc(C(=O)NC4CC4)c(C)c3c2)cc1` [compound 255] the figure was less than 20 µM; with `CCNC(=O)c1oc2ccc(S(=O)(=O)N3CCC(C)CC3)cc2c1C` [compound 256], 5 to 20 µM; with `Cc1c(C(=O)NC2CC2)oc2ccc(S(=O)(=O)N3CCCCC3)cc12` [compound 257], less than 20 µM.
Same read-out and setting: the result for `Cc1c(C(=O)NC2CCCC2)[nH]c2ccc(S(=O)(=O)N3CCCCCC3)cc12` [compound 258] reads 5 to 20 µM.
Still for that read-out and setting: with `Cc1c(C(=O)N(C)C)oc2ccc(S(=O)(=O)N3CCOCC3)cc12` [compound 259] the figure was less than 20 µM; with `Cc1c(C(=O)NC2CCCC2)oc2ccc(S(=O)(=O)N3CCCCC3)cc12` [compound 260], less than 5 µM; with `Cc1c(C(=O)NC2CC2)oc2ccc(S(=O)(=O)N(C)c3ccccn3)cc12` [compound 261], less than 20 µM.
As to `Cc1c(C(=O)N(C(C)C)C(C)C)[nH]c2ccc(S(=O)(=O)N3CCC(C)CC3)cc12` [compound 262], the IC50 under setting [1] was less than 5 µM.
Same read-out and setting: with `Cc1c(C(=O)N(C(C)C)C(C)C)oc2ccc(S(=O)(=O)N3CCCC(C)C3)cc12` (centres unmarked) [compound 263] the figure was less than 5 µM; with `Cc1c(C(=O)NC(C)C)oc2ccc(S(=O)(=O)N3CCCC(F)(F)C3)cc12` [compound 264], less than 20 µM.
Still for that read-out and setting: with `CCNC(=O)c1cc2cc(S(=O)(=O)N3CCCCCC3)ccc2o1` [compound 265] the figure was 5 to 20 µM.
On the same count and under the same terms, with `CC1CCN(S(=O)(=O)c2ccc3oc(C(=O)NCCC4CCOCC4)cc3c2)CC1` [compound 266] the figure was less than 5 µM; with `Cc1c(C(=O)NCc2ccccc2)oc2ccc(S(=O)(=O)N3CCOCC3)cc12` [compound 267], less than 20 µM; with `CCN(CC)C(=O)c1cc2cc(S(=O)(=O)N3CCC(C)CC3)ccc2o1` [compound 268], less than 5 µM.
Take `Cc1c(C(=O)N2CCC(C)CC2)[nH]c2ccc(S(=O)(=O)N3CCC(C)CC3)cc12` [compound 269]: the IC50 under setting [1] was 5 to 20 µM.
For `O=C(NC1CC1)c1cc2cc(N(C3CCCCC3)S(=O)(=O)c3ccccc3)ccc2[nH]1` [compound 270], the IC50 under setting [1] lay in the range of 5 to 20 µM.
Same read-out and setting: the result for `CC1CC(C)CN(S(=O)(=O)c2ccc3oc(C(=O)NC(C)C)cc3c2)C1` (centres unmarked) [compound 271] reads less than 5 µM.
On the same count and under the same terms, the result for `O=C(c1cc2cc(S(=O)(=O)N3CCCCCC3)ccc2[nH]1)N1CCCC1` [compound 272] reads less than 20 µM.
On the same count and under the same terms, with `CC1CCN(C(=O)c2cc3cc(S(=O)(=O)N4CCC(C)CC4)ccc3o2)CC1` [compound 273] the figure was less than 5 µM; with `CC1CC(C)CN(S(=O)(=O)c2ccc3[nH]c(C(=O)NC(C)C)cc3c2)C1` (centres unmarked) [compound 274], less than 5 µM; with `CC1CC(C)CN(S(=O)(=O)c2ccc3[nH]c(C(=O)NCC4CCOCC4)cc3c2)C1` (centres unmarked) [compound 275], less than 5 µM.
Take `CC1CC(C)CN(S(=O)(=O)c2ccc3oc(C(=O)NCc4ccccc4)cc3c2)C1` (centres unmarked) [compound 276]: under setting [1], the IC50 was less than 5 µM.
Same read-out and setting: the result for `Cc1c(C(=O)N(C)C)oc2ccc(S(=O)(=O)N3CCCCC3)cc12` [compound 277] reads less than 20 µM; that for `CCN(CC)S(=O)(=O)c1ccc2oc(C(=O)N(C(C)C)C(C)C)c(C)c2c1` [compound 278], 5 to 20 µM.
The same measure, in the same setting: the result for `Cc1c(C(=O)N2CCC(C)CC2)oc2ccc(S(=O)(=O)N3CCCCC3)cc12` [compound 279] reads 5 to 20 µM; that for `Cc1c(C(=O)N2CCCC(C)C2)oc2ccc(S(=O)(=O)N3CCCCC3)cc12` (centres unmarked) [compound 280], 5 to 20 µM.
The same measure, in the same setting: the result for `Cc1c(C(=O)NCC2CCCO2)[nH]c2ccc(S(=O)(=O)N3CC(C)CC(C)C3)cc12` (centres unmarked) [compound 281] reads less than 5 µM; that for `COc1ccc(CNC(=O)c2oc3ccc(S(=O)(=O)N4CCC(C)CC4)cc3c2C)cc1` [compound 282], less than 5 µM; that for `Cc1c(C(=O)NCc2ccccc2)[nH]c2ccc(S(=O)(=O)N3CC(C)CC(C)C3)cc12` (centres unmarked) [compound 283], less than 5 µM.
Turning to `Cc1c(C(=O)N(C(C)C)C(C)C)oc2ccc(S(=O)(=O)N3CC(C)CC(C)C3)cc12` (centres unmarked) [compound 284], the IC50 under setting [1] was less than 5 µM.
Still for that read-out and setting: the result for `CC1CCN(S(=O)(=O)c2ccc3[nH]c(C(=O)N(C)Cc4ccccc4)cc3c2)CC1` [compound 285] reads less than 5 µM; that for `CS(=O)(=O)Nc1ccc2[nH]c(C(=O)NC3CC3)cc2c1` [compound 286], less than 20 µM.
As to `Cc1c(C(=O)N2CCC3(CC2)OCCO3)oc2ccc(S(=O)(=O)N3CCC(C)CC3)cc12` [compound 287], the concentration for half-maximal inhibition (IC50) lay within 5 to 20 µM.
For the molecule `Cc1ccc(NS(=O)(=O)c2ccc3oc(C(=O)NC4CC4)c(C)c3c2)cc1` [compound 288], under setting [1], the IC50 was 5 to 20 µM.
Still for that read-out and setting: the result for `CC1CC(C)CN(S(=O)(=O)c2ccc3[nH]c(C(=O)NCCc4ccccc4)cc3c2)C1` (centres unmarked) [compound 289] reads less than 5 µM; that for `Cc1c(C(=O)N2CCN(C)CC2)[nH]c2ccc(S(=O)(=O)N3CCC(C)CC3)cc12` [compound 290], 5 to 20 µM; that for `CCN(CC)S(=O)(=O)c1ccc2oc(C(=O)NCCc3ccccc3)c(C)c2c1` [compound 291], 5 to 20 µM.
The same measure, in the same setting: with `COc1ccc(S(=O)(=O)n2c(C(=O)N3CCCCC3)cc3cc(S(=O)(=O)N4CC(C)CC(C)C4)ccc32)cc1` (centres unmarked) [compound 292] the figure was less than 5 µM; with `CC1CCN(S(=O)(=O)c2ccc3oc(C(=O)N4CC(C)CC(C)C4)cc3c2)CC1` (centres unmarked) [compound 293], less than 5 µM.
On the same count and under the same terms, with `Cc1c(C(=O)NC2CCCC2)oc2ccc(S(=O)(=O)N3CCCCCC3)cc12` [compound 294] the figure was less than 5 µM; with `CNC(=O)c1cc2cc(S(=O)(=O)N3CCCCCC3)ccc2o1` [compound 295], 5 to 20 µM.
`O=C(NC1CCCCC1)c1cc2cc(S(=O)(=O)N3CCCCCC3)ccc2[nH]1` [compound 296]: the IC50 under setting [1] was less than 20 µM.
The same measure, in the same setting: the result for `Cc1c(C(=O)N2CCCCC2C)[nH]c2ccc(S(=O)(=O)N3CC(C)CC(C)C3)cc12` (centres unmarked) [compound 297] reads less than 5 µM.

By IC50 is commonly meant the midpoint of a concentration-inhibition curve.
